Test results as given in PubChem BioAssay (NCI).
Values joined by “and” are separate entries in the source; they are usually repeats but may differ in a detail not shown here. Identical values can stand only once.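 Dose response: 5 concentrations. Exposure: 48 h. Format: 96-well plates. Endpoint: linear interpolation; highest concentration if not reached. At the GI50, growth is halved. TGI denotes the concentration required for complete inhibition of growth.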

Columns and labels:
Assay in all cases: growth of human tumour cells (NCI), 48 h
HCC-2998 colon = tested on: HCC-2998 colon
COLO 205 colon = tested on: COLO 205 colon
SN12C renal = tested on: SN12C renal
HL-60(TB) leukemia = tested on: HL-60(TB) leukemia
SR leukemia = tested on: SR leukemia
OVCAR-4 ovarian = tested on: OVCAR-4 ovarian
HOP-92 NSCLC = tested on: HOP-92 NSCLC
SK-OV-3 ovarian = tested on: SK-OV-3 ovarian
HS 578T breast = tested on: HS 578T breast
U251 CNS = tested on: U251 CNS

SMILES	GI50 (HCC-2998 colon)	TGI (HCC-2998 colon)	GI50 (COLO 205 colon)	TGI (COLO 205 colon)	GI50 (SN12C renal)	TGI (SN12C renal)	GI50 (HL-60(TB) leukemia)	TGI (HL-60(TB) leukemia)	GI50 (SR leukemia)	TGI (SR leukemia)	GI50 (OVCAR-4 ovarian)	TGI (OVCAR-4 ovarian)	GI50 (HOP-92 NSCLC)	TGI (HOP-92 NSCLC)	GI50 (SK-OV-3 ovarian)	TGI (SK-OV-3 ovarian)	GI50 (HS 578T breast)	TGI (HS 578T breast)	GI50 (U251 CNS)	TGI (U251 CNS)
O=C(O)C1(Cc2cccc(Nc3nccs3)n2)CCC(Oc2cccc(Cl)c2F)CC1 (centres undefined)	18.2 µM	34.2 µM	0.876 µM	19.3 µM	11.4 µM	46.6 µM	3.43 µM	> 67.3 µM	0.419 µM	50.3 µM	25.8 µM	> 100 µM	13 µM	44.7 µM	12.8 µM	46 µM	10.4 µM	64 µM	24.4 µM	> 54.8 µM
COc1cnc2c(c1)C(=O)c1c-2n(CCCN2CCCC2)c(=O)c2cc(F)ccc12	2.65 µM	20.7 µM	0.109 µM	2.64 µM	0.214 µM	10 µM	0.311 µM	1.13 µM	0.144 µM	1.26 µM	0.365 µM	11.3 µM	0.531 µM	7.8 µM	0.272 µM	0.986 µM	1.69 µM	13.5 µM	0.116 µM	0.467 µM
CCCCCCCC(=O)SCC/C=C/[C@@H]1CC(=O)NCc2nc(co2)C2=N[C@@](C)(CS2)C(=O)N[C@@H](C(C)C)C(=O)O1	0.0196 µM	0.216 µM	0.0342 µM	0.141 µM	0.0508 µM	> 50 µM	0.0294 µM	31.8 µM	0.0164 µM	> 50 µM	0.0276 µM	> 50 µM	0.0147 µM	0.111 µM	0.0107 µM	0.101 µM	0.0125 µM	–	0.0448 µM	0.472 µM
N[C@@H]1CCCN(c2c(/C=C3\SC(=O)NC3=O)cccc2-c2ccccc2)C1	14.1 µM	28.6 µM	11.6 µM	25.5 µM	14.4 µM	29.5 µM	17.8 µM	42.6 µM	4.64 µM	26.2 µM	13.2 µM	28.4 µM	3.17 µM	20.1 µM	15.5 µM	35 µM	14 µM	64 µM	3.3 µM	15.3 µM
COc1ccc(-c2cc(-c3cc(OC)c(OC)c(OC)c3)c(C#N)c(N3CCOCC3)n2)cc1O	29.2 µM	> 100 µM	21.5 µM	> 100 µM	4.69 µM	> 100 µM	1.34 µM	3.87 µM	1.1 µM	> 100 µM	47.9 µM	> 100 µM	5.67 µM	> 100 µM	14.8 µM	> 100 µM	2.45 µM	> 28.3 µM	3.4 µM	> 94.1 µM
CCCCCCCCCCCCOC1C(CNC(=O)C2OC3OC(C)(C)OC3C2NC(=O)CN2CCCCCC2)OC2OC(C)(C)OC21 (centres undefined)	6 µM	19.3 µM	2.49 µM	6.76 µM	9.64 µM	24.6 µM	1.87 µM	4.39 µM	2.44 µM	4.91 µM	6.47 µM	20 µM	9.4 µM	22.8 µM	16.2 µM	30.8 µM	3.79 µM	18.5 µM	4.91 µM	15.9 µM
COc1ccc2c(c1)[n+](=O)c(C(=O)/C=C/c1cc(OC)c(OC)c(OC)c1)c(C)n2[O-]	42.9 µM	> 100 µM	65 µM	> 100 µM	28.2 µM	> 100 µM	> 100 µM	> 100 µM	58.4 µM	> 100 µM	> 100 µM	> 100 µM	12.3 µM	30.8 µM	21.3 µM	51.7 µM	11.8 µM	34.5 µM	9.87 µM	22.4 µM
COc1ccc(-c2cc(=O)c3c(O)cc(C)cc3o2)cc1OC	–	> 100 µM	–	> 100 µM	–	> 100 µM	–	> 100 µM	–	> 100 µM	–	> 100 µM	–	> 100 µM	–	> 100 µM	–	> 100 µM	–	> 100 µM
CCN1C(=O)N(c2ccccc2)C2NN=c3s/c(=C4\C(=O)N(C(C)C)c5ccccc54)c(=O)n3C21 (centres undefined)	3.5 µM	61.8 µM	0.54 µM	24.5 µM	1.86 µM	> 100 µM	1.03 µM	> 23.6 µM	0.553 µM	> 100 µM	3.71 µM	> 100 µM	1.44 µM	> 43.5 µM	1.07 µM	> 100 µM	1.06 µM	21.8 µM	1.44 µM	> 51.6 µM
Nc1nc(N)c2nc(CNc3ccc(C(=O)NC(CCCNC(=O)c4ccccc4C(=O)O)C(=O)O)cc3)cnc2n1 (centres undefined)	0.00132 µM	> 100 µM	0.0765 µM	> 100 µM	0.00227 µM	> 100 µM	0.00049 µM	> 100 µM	0.000424 µM	> 100 µM	> 100 µM	> 100 µM	< 0.01 µM and 0.0274 µM	–	–	–	–	> 100 µM	–	> 100 µM
C#Cc1cccc(Nc2nc3ccc([N+](=O)[O-])cc3nc2Nc2cccc(C#C)c2)c1	0.341 µM	1.27 µM	0.172 µM	0.345 µM	0.313 µM	1.29 µM	0.299 µM	0.788 µM	0.318 µM	1.3 µM	0.218 µM	0.982 µM	0.191 µM	0.704 µM	0.257 µM	0.862 µM	0.322 µM	1.72 µM	0.18 µM	0.482 µM
CC(=O)OCC1O[C@@H]([S-])C(OC(C)=O)[C@H](OC(C)=O)[C@@H]1OC(C)=O.[Au+].c1ccc(CN2[CH-]N(Cc3ccccc3)C(c3ccccc3)=C2c2ccccc2)cc1	1.96 µM	3.66 µM	1.99 µM	3.75 µM	2.22 µM	5.58 µM	2.24 µM	6.12 µM	0.663 µM	7.8 µM	1.4 µM	3.15 µM	1.74 µM	3.38 µM	3.39 µM	10.2 µM	2.51 µM	6.91 µM	1.61 µM	3.09 µM
